{"source": "the supplement of paper PMC10307832", "experiment_in_all_cases": "relative viability (nuclei count vs DMSO), 5 days (fraction); higher = more cells survive", "key": {"[1]": {"compound": "O=c1[nH]cc(F)c(=O)[nH]1 [5-Fluorouracil] + C[C@@H](Oc1cc(-c2cnn(C3CCNCC3)c2)cnc1N)c1c(Cl)ccc(F)c1Cl [Crizotinib] (partner 1 µM)", "summary_of_the_method": "(§1)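 Five library-drug doses in √10 steps were combined with a fixed anchor-drug dose, or a single drug was given alone, by pin tool to lung cancer cell lines in 1536-well plates the day after seeding. Nuclei were stained and counted after 5 days. Relative viability is the nuclei count in treated wells over that in vehicle wells, taken as the median of duplicate plates.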"}, "[2]": {"compound": "O=c1[nH]cc(F)c(=O)[nH]1 [5-Fluorouracil] + Cc1nc(NC(=O)N2CCC[C@H]2C(N)=O)sc1-c1ccnc(C(C)(C)C(F)(F)F)c1 [Alpelisib] (partner 2 µM)", "summary_of_the_method": "as §1"}, "[3]": {"compound": "CN[C@@H]1C[C@H]2O[C@@](C)([C@@H]1OC)n1c3ccccc3c3c4c(c5c6ccccc6n2c5c31)C(=O)NC4 [Staurosporine] + CC(C)C[C@H](NC(=O)[C@H](Cc1ccccc1)NC(=O)c1cnccn1)B(O)O [Bortezomib] (partner 0.002 µM)", "summary_of_the_method": "as §1"}, "[4]": {"compound": "O=c1[nH]cc(F)c(=O)[nH]1 [5-Fluorouracil] + Cc1cc(Nc2cc(N3CCN(C)CC3)nc(Sc3ccc(NC(=O)C4CC4)cc3)n2)n[nH]1 [Tozasertib] (partner 0.1 µM)", "summary_of_the_method": "as §1"}, "[5]": {"compound": "O=c1[nH]cc(F)c(=O)[nH]1 [5-Fluorouracil] + Nc1ncn([C@H]2C[C@H](O)[C@@H](CO)O2)c(=O)n1 [Decitabine] (partner 2 µM)", "summary_of_the_method": "as §1"}}, "data": [{"cell line": "UMC-11", "values": [{"measurement": "relative viability", "setting": "[1]; first compound 0.02 µM", "value": 0.52}, {"measurement": "relative viability", "setting": "[1]; first compound 0.2 µM", "value": 0.441}, {"measurement": "relative viability", "setting": "[1]; first compound 0.6325 µM", "value": 0.303}, {"measurement": "relative viability", "setting": "[1]; first compound 2 µM", "value": 0.232}, {"measurement": "relative viability", "setting": "[2]; first compound 0.02 µM", "value": 0.792}, {"measurement": "relative viability", "setting": "[2]; first compound 0.2 µM", "value": 0.645}, {"measurement": "relative viability", "setting": "[2]; first compound 2 µM", "value": 0.326}, {"measurement": "relative viability", "setting": "[3]; first compound 0.005 µM", "value": 0.664}, {"measurement": "relative viability", "setting": "[3]; first compound 0.01581 µM", "value": 0.131}, {"measurement": "relative viability", "setting": "[3]; first compound 0.05 µM", "value": 0.454}, {"measurement": "relative viability", "setting": "[3]; first compound 0.1581 µM", "value": 0.0878}, {"measurement": "relative viability", "setting": "[3]; first compound 0.5 µM", "value": 0.0678}, {"measurement": "relative viability", "setting": "[4]; first compound 0.02 µM", "value": 0.183}, {"measurement": "relative viability", "setting": "[4]; first compound 0.2 µM", "value": 0.188}, {"measurement": "relative viability", "setting": "[4]; first compound 0.6325 µM", "value": 0.203}, {"measurement": "relative viability", "setting": "[4]; first compound 2 µM", "value": 0.188}, {"measurement": "relative viability", "setting": "[5]; first compound 0.02 µM", "value": 0.593}, {"measurement": "relative viability", "setting": "[5]; first compound 0.2 µM", "value": 0.565}, {"measurement": "relative viability", "setting": "[5]; first compound 0.6325 µM", "value": 0.497}]}]}
